Values after ≈ are worked out from the molar mass of the structure shown.
Key:
[1] = system: HCMV recombinant mutant virus (RV145); experiment: microbe, parasite or virus in culture; assay type: cell-based, human cytomegalovirus; conditions: for IC50: Human betaherpesvirus 5, read-out: IC50 ug/ml HCMV, HCMV
Excerpt: Microtiter plate assay. Ninety-six well plate cultures of human foreskin fibroblasts are infected in the presence of inhibitor compound with a HCMV recombinant mutant virus whose genome contains the prokaryotic beta-glucuronidase gene (Jefferson, R. A., S. M. Burgess, and D. Hirsh. 1986. Beta-glucuronidase from Escherichia coli as a gene fusion marker. Proc. Natl. Acad. Sci. USA 83:8447-8451) whose expression is controlled by a viral promoter. An example of such a virus is RV145 (Jones, T. R., V. P. Muzithras, and Y. Gluzman. 1991. Replacement mutagenesis of the human cytomegalovirus genome: US10 and US11 gene products are nonessential. J. Virol. 65:5860-5872). Since it is under the control of a viral promoter, beta-glucuronidase expression is an indirect indicator of growth and replication of HCMV in this assay. At 96 hours post-infection, the infected cell lysates are prepared (using 50 mM sodium phosphate [pH7.0]containing 0.1% Triton X-100 and 0.1% sarkosyl) and assayed for beta-glucuronidase activity using a substrate for the enzyme which when cleaved yields either a product which can be measured […] in a spectrophotometer or fluorescently in a microfluorimeter. Examples of such substrates are p-nitrophenyl-beta-D-glucuronide and methylumbelliferylglucuronide, respectively. The presence of an antiviral compound is indicated by the reduced expression of the HCMV genome resident beta-glucuronidase gene, compared to the absence of inhibitor. […] Data from this assay generated using varying amounts of inhibitor compound is also used to estimate the IC50 of an inhibitor compound.

HSV-1 = experiment: HSV Antiviral (ELISA) Assay in Vero cells; assay type: cell-based, herpes simplex virus type 1; conditions: HSV-1, Vero cells; for IC50: Human alphaherpesvirus 1, read-out: IC50 (ug/ml) HSV
Summary of the method: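 Viral replication was quantified by cell-fixed ELISA for HSV glycoprotein D, using a β-galactosidase reporter and fluorogenic umbelliferyl substrate, about 24 h after HSV-1 infection (MOI 0.006) of Vero cells. Compounds, at several concentrations, were added 30 min pre-infection. IC50 was derived from fluorescence relative to the compound-free signal.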

VZV strain Ellen = experiment: VZV Antiviral (ELISA) Assay in human foreskin fibroblast cells; assay type: cell-based, varicella-zoster virus; conditions: for IC50 / inhibition at 10 µg/mL: Human alphaherpesvirus 3, Fibroblast; for IC50: read-out: IC50 (ug/ml) VZV; for inhibition at 10 µg/mL: read-out: % inhibition 10 ug/ml VZV, 10 ug/ml
Summary of the method: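 Cell-based VZV (Ellen) spread assay in HFF, 3-day compound exposure in 2% FBS medium. Viral antigen quantified by fluorescent β-galactosidase ELISA; IC50 from inhibition of signal.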

| Structure (SMILES) | IC50 ug/ml HCMV [1] [µg/mL] | IC50 (ug/ml) HSV (HSV-1) [µg/mL] | IC50 (ug/ml) VZV (VZV strain Ellen) [µg/mL] | % inhibition 10 ug/ml VZV (VZV strain Ellen) [%] | IC50 [1] [µg/mL] | IC50 (HSV-1) [µg/mL] | IC50 (VZV strain Ellen) [µg/mL] | inhibition at 10 µg/mL (VZV strain Ellen) [%] |
| --- | --- | --- | --- | --- | --- | --- | --- | --- |
| CC(NC(=S)Nc1ccc(NC(=O)c2ccc(Cl)cc2)cc1)c1ccc(F)cc1 (stereo not drawn) [Example 756] | >10 | >10 | 0.3 (≈ 0.701 µM) | – | – | – | – | – |
| CC(=O)Nc1cccc(NC(=S)Nc2ccc(NC(=O)c3ccccc3F)cc2)c1 [Example 477] | >10 | >10 | >10 | 15 | – | – | – | – |
| O=C(Nc1ccc(NC(=S)Nc2ccc(Cl)cc2O)cc1)c1ccccc1F [Example 1001, N-{4-[3-(4-Chloro-2-hydroxy-phenyl)-thioureido]-phenyl}-2-fluoro-benzamide] | – | – | – | – | 2.6 (≈ 6.25 µM) | 4.3 (≈ 10.3 µM) | 3.6 (≈ 8.66 µM) | – |
| O=C(Nc1ccc(NC(=S)Nc2ccc3[nH]nnc3c2)cc1)c1c(F)cccc1F [Example 527] | >10 | >10 | >10 | 20 | – | – | – | – |
| O=C(O)c1cccc(NC(=S)Nc2ccc(NC(=O)c3ccco3)cc2)c1 [Example 964, 3-(3-{4-[(Furan-2-carbonyl)-amino]-phenyl}-thioureido)-benzoic acid] | – | – | – | – | > 10 | > 10 | > 10 | 0 |
| Nc1c(Cl)cc(NC(=S)Nc2ccc(NC(=O)c3ccccc3F)cc2)cc1Cl [Example 518] | 4 (≈ 8.9 µM) | 0.25 (≈ 0.556 µM) | >10 | 32 | – | – | – | – |
| CN1CCC(N(C)c2ccc(NC(=S)Nc3ccc(NC(=O)c4ccccc4F)cc3)cc2Cl)C1 (stereo not drawn) [Example 332] | 0.9 (≈ 1.76 µM) | 1 (≈ 1.95 µM) | 8 (≈ 15.6 µM) | 90 | – | – | – | – |
| O=C(Nc1ccc(NC(=S)Nc2ccc(Cl)c(C(F)(F)F)c2)cc1)c1c(F)cccc1F [Example 380] | >10 | >10 | >10 | 50 | – | – | – | – |
| CSc1ccc(NC(=S)Nc2ccc(NC(=O)c3ccccc3F)cc2Cl)cc1Cl [Example 460] | 2 (≈ 4.16 µM) | 0.09 (≈ 0.187 µM) | >10 | 50 | – | – | – | – |
| Cc1ccc(NC(=S)Nc2ccc(NC(=O)c3ccccc3F)cc2Cl)cc1Cl [Example 459] | >10 | 0.12 (≈ 0.268 µM) | >10 | 25 | – | – | – | – |
| COc1cc(OC)c(NC(=S)Nc2ccc(NC(=O)c3cccc(F)c3)cc2)cc1Cl [Example 117] | 3 (≈ 6.52 µM) | 0.3 (≈ 0.652 µM) | >10 | 15 | – | – | – | – |
| CCCCC(NC(=S)Nc1ccc(NC(=O)c2ccccc2F)cc1)c1ccc(F)cc1 (stereo not drawn) [Example 773] | 1.2 (≈ 2.65 µM) | >10 | >7.5 | – | – | – | – | – |
| O=C(Nc1ccc(NC(=S)Nc2cccc([N+](=O)[O-])c2)cc1)c1ccccc1F [Example 959, 2-Fluoro-N-{4-[3-(3-nitro-phenyl)-thioureido]-phenyl}-benzamide] | – | – | – | – | > 10 | 0.7 (≈ 1.71 µM) | > 10 | 33 |
| COc1cc(OC)c(NC(=S)Nc2ccc(NC(=O)c3cccc(OCCN(C)C)c3)cc2)cc1Cl [Example 257] | 7 (≈ 13.2 µM) | 2.5 (≈ 4.73 µM) | 2.5 (≈ 4.73 µM) | 105 | – | – | – | – |
| O=C(Nc1ccc(NC(=S)NCc2ccccc2)cc1)c1ccccc1F [Example 536] | >10 | >10 | >10 | – | – | – | – | – |
| O=C(Nc1ccc(NC(=S)Nc2ccc(SC3CCCCC3)c(Cl)c2)cc1)c1ccccc1F [Example 357] | 9 (≈ 17.5 µM) | >10 | 40 (≈ 77.8 µM) | 44 | – | – | – | – |
| CC(NC(=S)Nc1ccc(C(=O)Nc2ccc(F)cc2)cc1)c1ccc(F)cc1 (stereo not drawn) [Example 975, N-(4-Fluoro-phenyl)-4-{3-[1-(4-fluoro-phenyl)-ethyl]-thioureido}-benzamide] | – | – | – | – | > 10 | > 10 | 0.87 (≈ 2.11 µM) | – |
| O=C(Nc1ccc(NC(=S)Nc2ccc(OC(F)(F)F)c(Br)c2)cc1)c1ccccc1F [Example 549] | >10 | >10 | >10 | – | – | – | – | – |
| COc1cc(OC)c(NC(=S)Nc2ccc(NC(=O)c3cccc(OC(C)=O)c3)cc2)cc1Cl [Example 253] | 8 (≈ 16 µM) | 1.2 (≈ 2.4 µM) | 6 (≈ 12 µM) | 100 | – | – | – | – |
| CCCCSc1ccc(NC(=S)Nc2ccc(NC(=O)c3ccccc3F)cc2)cc1Cl [Example 387] | >10 | >10 | >10 | 26 | – | – | – | – |
| Nc1cc(Cl)cc(NC(=S)Nc2ccc(NC(=O)c3ccccc3F)cc2)c1 [Example 442] | 2 (≈ 4.82 µM) | 1 (≈ 2.41 µM) | 8 (≈ 19.3 µM) | 81 | – | – | – | – |
| O=C(CN1CCOCC1)Nc1ccc(NC(=S)Nc2ccc(NC(=O)c3ccccc3F)cc2)cc1Cl [Example 367] | >10 | >10 | >10 | 20 | – | – | – | – |
| COc1cc(OC)c(NC(=S)Nc2ccc(NC(=O)c3ccccc3N[S+](C)[O-])cc2)cc1Cl (stereo not drawn) [Example 191] | >10 | 8 (≈ 15.4 µM) | >10 | 22 | – | – | – | – |
| CN(c1ccc(NC(=S)Nc2ccc(NC(=O)c3c(F)cccc3F)cc2)cc1Cl)C1CCCCC1 [Example 248] | 2 (≈ 3.78 µM) | >10 | 2 (≈ 3.78 µM) | 96 | – | – | – | – |

Reference: US6462055B2, “Alpha-methylbenzyl-containing thiourea inhibitors of herpes viruses containing a phenylenediamine group” (Wyeth, priority 1998, dated 2002)
